Assay results: patent US20230293526A1, “METHOD FOR TREATING CANCER WITH A REVERSE TRANSCRIPTASE INHIBITOR” (PrimeFour Therapeutics, Inc., priority 2020, published 2023)

Tested on: cancer cell lines
Test: Cancer cell proliferation activity of representative nucleosides, CellTiterGlo 72 h (Example 7, Tables 8 and 9)
Assay type: cell-based
Description: Dose response relationships on cell proliferation was assessed for representative nucleosides on cancer cell lines. Briefly, compound treatment of cells started one day after seeding with a final DMSO concentration of 0.1%, and was performed by nanodrop-dispensing using a Tecan Dispenser. 0.1% DMSO (solvent) and Staurosporine (10 μM) served as high control (100% viability) and low control (0% viability), respectively. Cells were cultured in the appropriate media. For the assays, cells were seeded in white cell culture-treated flat and clear bottom multiwell plates and incubated at 37° C. overnight before compound was added. After incubation for 72 h at 37° C. at 5% or 10% CO2 dependent on the medium, cell plates were equilibrated to room temperature for one hour, CellTiterGlo reagent (Promega) was added and luminescence was measured approximately an hour later using a luminometer.
Raw data were converted into percent cell viability relative to the high and low control, which were set to 100% and 0%, respectively.

IC50 (72 h, 5637, 72 h (Table 9)): > 50 µM
IC50 (72 h, CLS439, 72 h (Table 9)): > 50 µM
IC50 (72 h, HS729, 72 h (Table 9)): > 50 µM
IC50 (72 h, J82, 72 h (Table 9)): 4.88 µM
IC50 (72 h, JAR, 72 h (Table 9)): > 50 µM
IC50 (72 h, MT3, 72 h (Table 9)): 3.77 µM
IC50 (72 h, PC3, 72 h (Table 9)): > 50 µM
IC50 (72 h, RD, 72 h (Table 9)): > 50 µM
IC50 (72 h, T24, 72 h (Table 9)): 3.01 µM
IC50 (Homo sapiens, 22Rv1, 72 h, 22RV1, 72 h (Table 9)): 1.06 µM
IC50 (Homo sapiens, 786-0, 72 h, 786O, 72 h (Table 9)): > 50 µM
IC50 (Homo sapiens, A204, 72 h, A204, 72 h (Table 9)): 2.55 µM
IC50 (Homo sapiens, A549, 72 h, A549, 72 h (Table 9)): > 50 µM
IC50 (Homo sapiens, A673, 72 h, A673, 72 h (Table 9)): 5.25 µM
IC50 (Homo sapiens, A2780, 72 h, A2780, 72 h (Table 9)): > 50 µM
IC50 (Homo sapiens, A-375, 72 h, A375, 72 h (Table 9)): > 50 µM
IC50 (Homo sapiens, A-431, 72 h, A431, 72 h (Table 9)): 2.6 µM
IC50 (Homo sapiens, ACHN, 72 h, 72 h (Table 9)): 4.02 µM
IC50 (Homo sapiens, ASPC1, 72 h, ASPC1, 72 h (Table 9)): > 50 µM
IC50 (Homo sapiens, BT-20, 72 h, BT20, 72 h (Table 9)): > 50 µM
IC50 (Homo sapiens, BXPC-3, 72 h, BXPC3, 72 h (Table 9)): 6.34 µM
IC50 (Homo sapiens, C-33-A, 72 h, C33A, 72 h (Table 9)): 1.75 µM
IC50 (Homo sapiens, CAKI-1, 72 h, CAKI1, 72 h (Table 9)): > 50 µM
IC50 (Homo sapiens, COLO 205, 72 h, COLO205, 72 h (Table 9)): > 50 µM
IC50 (Homo sapiens, COLO-678, 72 h, COLO678, 72 h (Table 9)): > 50 µM
IC50 (Homo sapiens, Ca-Ski, 72 h, CASKI, 72 h (Table 9)): > 50 µM
IC50 (Homo sapiens, Caco-2, 72 h, CACO2, 72 h (Table 9)): > 50 µM
IC50 (Homo sapiens, Calu-6, 72 h, CALU6, 72 h (Table 9)): > 50 µM
IC50 (Homo sapiens, DLD-1, 72 h, DLD1, 72 h (Table 9)): 4.59 µM
IC50 (Homo sapiens, DU-145, 72 h, DU145, 72 h (Table 9)): 5.46 µM
IC50 (Homo sapiens, EFO-21, 72 h, EFO21, 72 h (Table 9)): > 50 µM
IC50 (Homo sapiens, EJ-28, 72 h, EJ28, 72 h (Table 9)): > 50 µM
IC50 (Homo sapiens, Granta-519, 72 h, GRANTA-519, 72 h (Table 9)): 3.15 µM
IC50 (Homo sapiens, HCT-15, 72 h, HCT15, 72 h (Table 9)): > 50 µM
IC50 (Homo sapiens, HCT-116, 72 h, HCT116, 72 h (Table 9)): > 50 µM
IC50 (Homo sapiens, HEK293, 72 h, HEK293, 72 h (Table 9)): > 50 µM
IC50 (Homo sapiens, HL-60, 72 h, HL-60, 72 h (Table 9)): > 50 µM
IC50 (Homo sapiens, HT-29, 72 h, HT29, 72 h (Table 9)): > 50 µM
IC50 (Homo sapiens, HT-1080, 72 h, HT1080, 72 h (Table 9)): > 50 µM
IC50 (Homo sapiens, HeLa, 72 h, 72 h (Table 9)): > 50 µM
IC50 (Homo sapiens, HepG2, 72 h, HEPG2, 72 h (Table 9)): 5.08 µM
IC50 (Homo sapiens, Hs-578T, 72 h, HS578T, 72 h (Table 9)): > 50 µM
IC50 (Homo sapiens, IGROV-1, 72 h, IGROV1, 72 h (Table 9)): > 50 µM
IC50 (Homo sapiens, IMR-90, 72 h, IMR90, 72 h (Table 9)): > 50 µM
IC50 (Homo sapiens, JEG-3, 72 h, JEG3, 72 h (Table 9)): > 50 µM
IC50 (Homo sapiens, JIMT-1, 72 h, JIMT1, 72 h (Table 9)): > 50 µM
IC50 (Homo sapiens, K562, 72 h, K-562, 72 h (Table 9)): > 50 µM
IC50 (Homo sapiens, Kasumi 1, 72 h, KASUMI-1, 72 h (Table 9)): > 50 µM
IC50 (Homo sapiens, L-363, 72 h, L-363, 72 h (Table 9)): > 50 µM
IC50 (Homo sapiens, LoVo, 72 h, 72 h (Table 9)): 3.55 µM
IC50 (Homo sapiens, MCF7, 72 h, MCF7, 72 h (Table 9)): > 50 µM
IC50 (Homo sapiens, MDA-MB-231, 72 h, MDAMB231, 72 h (Table 9)): > 50 µM
IC50 (Homo sapiens, MDA-MB-435, 72 h, MDAMB435, 72 h (Table 9)): > 50 µM
IC50 (Homo sapiens, MDA-MB-436, 72 h, MDAMB436, 72 h (Table 9)): 5.24 µM
IC50 (Homo sapiens, MDA-MB-468, 72 h, MDAMB468, 72 h (Table 9)): > 50 µM
IC50 (Homo sapiens, MG-63, 72 h, MG63, 72 h (Table 9)): > 50 µM
IC50 (Homo sapiens, MHH-ES-1, 72 h, MHHES1, 72 h (Table 9)): 3.07 µM
IC50 (Homo sapiens, MIA PaCa-2, 72 h, MIAPACA2, 72 h (Table 9)): > 50 µM
IC50 (Homo sapiens, MINO, 72 h, 72 h (Table 9)): 3.91 µM
IC50 (Homo sapiens, MV4-11, 72 h, MV4-11, 72 h (Table 9)): 0.38 µM
IC50 (Homo sapiens, NCI-H23, 72 h, NCI-H23, 72 h (Table 9)): 4.05 µM
IC50 (Homo sapiens, NCI-H82, 72 h, NCIH82, 72 h (Table 9)): 5.25 µM
IC50 (Homo sapiens, NCI-H292, 72 h, NCIH292, 72 h (Table 9)): > 50 µM
IC50 (Homo sapiens, NCI-H460, 72 h, NCIH460, 72 h (Table 9)): 2.8 µM
IC50 (Homo sapiens, OVCAR-3, 72 h, OVCAR3, 72 h (Table 9)): > 50 µM
IC50 (Homo sapiens, OVCAR-4, 72 h, OVCAR4, 72 h (Table 9)): > 50 µM
IC50 (Homo sapiens, PANC-1, 72 h, PANC1, 72 h (Table 9)): > 50 µM
IC50 (Homo sapiens, PLC-PRF-5, 72 h, PLCPRF5, 72 h (Table 9)): 5.05 µM
IC50 (Homo sapiens, Panc1005, 72 h, PANC1005, 72 h (Table 9)): > 50 µM
IC50 (Homo sapiens, Ramos, 72 h, 72 h (Table 9)): > 50 µM
IC50 (Homo sapiens, SAOS-2, 72 h, SAOS2, 72 h (Table 9)): > 50 µM
IC50 (Homo sapiens, SF-268, 72 h, SF268, 72 h (Table 9)): 14.6 µM
IC50 (Homo sapiens, SF-295, 72 h, SF295, 72 h (Table 9)): > 50 µM
IC50 (Homo sapiens, SK-BR-3, 72 h, SKBR3, 72 h (Table 9)): 3.44 µM
IC50 (Homo sapiens, SK-HEP1, 72 h, SKHEP1, 72 h (Table 9)): 3.15 µM
IC50 (Homo sapiens, SK-LMS-1, 72 h, SKLMS1, 72 h (Table 9)): 2.88 µM
IC50 (Homo sapiens, SK-MEL-5, 72 h, SKMEL5, 72 h (Table 9)): > 50 µM
IC50 (Homo sapiens, SK-MEL-28, 72 h, SKMEL28, 72 h (Table 9)): > 50 µM
IC50 (Homo sapiens, SK-N-AS, 72 h, SKNAS, 72 h (Table 9)): > 50 µM
IC50 (Homo sapiens, SK-N-SH, 72 h, SKNSH, 72 h (Table 9)): > 50 µM
IC50 (Homo sapiens, SK-OV-3, 72 h, SKOV3, 72 h (Table 9)): > 50 µM
IC50 (Homo sapiens, SNB-75, 72 h, SNB75, 72 h (Table 9)): 4.52 µM
IC50 (Homo sapiens, SU-DHL10, 72 h, SU-DHL-10, 72 h (Table 9)): > 50 µM
IC50 (Homo sapiens, SU-DHL-6, 72 h, SU-DHL-6, 72 h (Table 9)): 3.92 µM
IC50 (Homo sapiens, SW-620, 72 h, SW620, 72 h (Table 9)): > 50 µM
IC50 (Homo sapiens, TE-671, 72 h, TE671, 72 h (Table 9)): > 50 µM
IC50 (Homo sapiens, THP-1, 72 h, THP-1, 72 h (Table 9)): 2.49 µM
IC50 (Homo sapiens, U2OS, 72 h, 72 h (Table 9)): > 50 µM
IC50 (Homo sapiens, U-87 MG, 72 h, U87MG, 72 h (Table 9)): 5.23 µM
IC50 (Homo sapiens, UMUC3, 72 h, UMUC3, 72 h (Table 9)): > 50 µM
IC50 (Homo sapiens, UO-31, 72 h, UO31, 72 h (Table 9)): > 50 µM
IC50 (Homo sapiens, WSU-NHL, 72 h, 72 h (Table 9)): 4.26 µM
IC50 (NCI-H358M, 72 h, NCIH358M, 72 h (Table 9)): > 50 µM
IC50 (PBMC, 72 h, 72 h (Table 9)): > 50 µM
IC50 (RD-ES, 72 h, RDES, 72 h (Table 9)): 3.65 µM
Structure (SMILES): Cc1cn([C@H]2C[C@H](O)[C@@](C#N)(CO)O2)c(=O)[nH]c1=O [compound 31]
